Laboratory results published in patent publication US12509438B2, “Pyrazole derivative” (Aptabio Therapeutics Inc., priority 2020, dated 2025).

Tested on: differentiated HL-60 cells
Assay: ROS production induced by PMA in HL-60 cells differentiated into neutrophil cells (L-012 luminescence)
Type: cell-based, human
Details: Homo sapiens, HL-60, synthetic example compounds 0.5 uM, read-out: ROS production inhibitory effect
Description: (§1) In order to confirm an effect of the synthetic example compounds on ROS production from fibroblasts and specific substrate cells, ROS production was induced by stimulation of PMA (phorbol 12-myristate 13-acetate), TGF-β1, palmitate or high concentration-glucose, or the like for HL-60 cells (Korean Cell Line Bank), NHLF(normal human lung fibroblast, Lonza), LX-2 (human hepatic stellate cells, Sigma), ARPE19 (human retinal pigment epithelial cell, ATCC), KEL-FIB (Keloid fibroblast, ATCC) cells differentiated into neutrophil cells by treatment of DMSO, and the inhibitory effect of ROS production of the synthetic example compounds was observed under this condition.
HL-60 cells (human leukemia cells, ATCC) was suspended in a medium comprising 1.25% DMSO (RPMI+10% FBS) and cultured under the condition of 5% CO2, 37° C. for 6 days to induce differentiation into neutrophil cells. […] Then, PMA of […] was treated in each well comprising cells and a drug to induce production of ROS, and this ROS production was measured by observing the level of luminescence of each well using 100 μM L-012.

`Oc1c2c(nn1-c1ccccn1)CCCC2` [compound 1] and `CCN1CCc2c(nn(-c3ccccn3)c2O)C1` [compound 15] cannot be ordered by inhibition at 0.5 µM: < 30% for the first, < 30% for the second.

Compared with `Oc1c2c(nn1-c1ccc(C(F)(F)F)cn1)CCCC2` [compound 2], `N#Cc1ccc(CN2CCc3nn(-c4ccc(C(F)(F)F)cn4)c(O)c3C2)cc1` [compound 76] is higher in inhibition at 0.5 µM: < 30% for the first, 30 to 50% for the second.

Compared with `Oc1c2c(nn1-c1ccccn1)CN(Cc1ccccc1)CC2` [compound 3], `Oc1c2c(nn1-c1ccccn1)CCN(Cc1ccccc1)C2` [compound 34] is lower in inhibition at 0.5 µM: 50 to 70% for the first, 30 to 50% for the second.

First: Oc1c2c(nn1-c1ccc(C(F)(F)F)cn1)CN(Cc1ccccc1)CC2 [compound 4]
Second: Oc1c2c(nn1-c1ccc(C(F)(F)F)cn1)CCN(Cc1ccccc1)C2 [compound 39]
The inhibition at 0.5 µM of the first is higher: 30 to 50% for the first, < 30% for the second.

`Oc1c2c(nn1-c1ccccn1)CN(Cc1ccc(F)cc1)CC2` [compound 6] and `Cc1ccc(CN2CCc3c(nn(-c4ccccn4)c3O)C2)cc1` [compound 7] fall in the same range of inhibition at 0.5 µM: 30 to 50% for the first, 30 to 50% for the second.

`N#Cc1ccc(CN2CCc3c(nn(-c4ccccn4)c3O)C2)cc1` [compound 8] and `N#Cc1ccc(CN2CCc3nn(-c4ccccn4)c(O)c3C2)cc1` [compound 75] fall in the same range of inhibition at 0.5 µM: 50 to 70% for the first, 50 to 70% for the second.

Compared with `Oc1c2c(nn1-c1ccccn1)CN(Cc1cc(F)cc(F)c1)CC2` [compound 9], `Oc1c2c(nn1-c1ccccn1)CN(Cc1cccc(C(F)(F)F)c1)CC2` [compound 10] is lower in inhibition at 0.5 µM: 50 to 70% for the first, 30 to 50% for the second.

Compared with `C#CCN1CCc2c(nn(-c3ccccn3)c2O)C1` [compound 16], `O=S(=O)(c1ccccc1)N1CCc2c(nn(-c3ccccn3)c2O)C1` [compound 26] is higher in inhibition at 0.5 µM: < 30% for the first, 50 to 70% for the second.

First: O=C(NC1CCCCC1)N1CCc2c(nn(-c3ccccn3)c2O)C1 [compound 23]
Second: O=C(OCc1ccc([N+](=O)[O-])cc1)N1CCc2c(nn(-c3ccccn3)c2O)C1 [compound 32]
The inhibition at 0.5 µM of the first is lower: < 30% for the first, 30 to 50% for the second.

First: Oc1c2c(nn1-c1ccc(Cl)cn1)CN(Cc1ccccc1)CC2 [compound 35]
Second: Oc1c2c(nn1-c1ccc(Br)cc1)CN(Cc1ccccc1)CC2 [compound 37]
The inhibition at 0.5 µM of the first is lower: 50 to 70% for the first, > 70% for the second.

`O=C(O)c1ccc(-n2nc3c(c2O)CCN(Cc2ccccc2)C3)cc1` [compound 36] and `O=C(O)c1ccc(-n2nc3c(c2O)CN(Cc2ccccc2)CC3)cc1` [compound 81] cannot be ordered by inhibition at 0.5 µM: > 70% for the first, > 70% for the second.

First: Oc1c2c(nn1-c1ccccc1)CN(Cc1ccccc1)CC2 [compound 38]
Second: Oc1c2c(nn1-c1ccccc1)CCN(Cc1ccccc1)C2 [compound 40]
The inhibition at 0.5 µM of the first is higher: > 70% for the first, 50 to 70% for the second.

First: Oc1c2c(nn1-c1ccc(Br)cc1)CCN(Cc1ccccc1)C2 [compound 41]
Second: Oc1c2c(nn1-c1ccccc1Cl)CCN(Cc1ccccc1)C2 [compound 42]
The inhibition at 0.5 µM of the first is higher: 50 to 70% for the first, < 30% for the second.

`Oc1c2c(nn1-c1ccc(C(F)(F)F)cn1)CCN(Cc1cccc(C(F)(F)F)c1)C2` [compound 50] and `Oc1c2c(nn1-c1ccccn1)CCN(Cc1cccc(C(F)(F)F)c1)C2` [compound 77] fall in the same range of inhibition at 0.5 µM: 30 to 50% for the first, 30 to 50% for the second.

`Oc1c2c(nn1-c1ccccn1)CCN(Cc1cc3ccccc3cn1)C2` [compound 79] and `Oc1c2c(nn1-c1ccc(C(F)(F)F)cn1)CCN(Cc1cc3ccccc3cn1)C2` [compound 80] fall in the same range of inhibition at 0.5 µM: 50 to 70% for the first, 50 to 70% for the second.

Same assay, conditions: synthetic example compounds 0.5 uM, 0.5 µM

For `Oc1c2c(nn1-c1ccc(C(F)(F)F)cn1)CCN(Cc1cccc(C(F)(F)F)c1)C2` [compound 78], the “ROS production inhibitory effect” value was “*** (***: 50 < <70%)”.

Tested on: LX-2 cells
Assay: ROS production in LX-2 cells (L-012 or DCF-DA)
Type: cell-based, human
Details: FIG. 1
Description: as §1
(§2) NHLF (normal human lung fibroblast, Lonza), LX-2 (human hepatic stellate cells, Sigma), ARPE19 (human retinal pigment epithelial cell, ATCC), KEL-FIB (keloid fibroblast, ATCC) cells were suspended in a culture medium comprising 10% FBS and aliquoted in a 96 well plate, and then cultured under the condition of 5% CO2, 37° C. for 24 hours. The synthetic example compound was pretreated from 30 minutes to 1 hour, and then a ROS stimulus was treated to each well comprising cells and a drug. After additional culturing for 48 hours, the level of ROS production was confirmed by using L-012 or DCF-DA.

With `Oc1c2c(nn1-c1ccccn1)CCN(Cc1ccccc1)C2` [Synthetic example 34, 5-benzyl-2-(pyridin-2-yl)-4,5,6,7-tetrahydro-2H-pyrazolo[4,3-c]pyridin-3-ol] the “inhibition of ROS production induced by PMA” value was “inhibited ROS production”.

Tested on: NHLF cells
Assay: ROS production in NHLF cells (L-012 or DCF-DA)
Type: cell-based, human
Details: FIG. 1
Description: as §1, §2

`Oc1c2c(nn1-c1ccccn1)CCN(Cc1ccccc1)C2` [Synthetic example 34, 5-benzyl-2-(pyridin-2-yl)-4,5,6,7-tetrahydro-2H-pyrazolo[4,3-c]pyridin-3-ol] was tested, and the “inhibition of ROS production induced by PMA” value was “inhibited ROS production”.

Tested on: bleomycin-induced pulmonary fibrosis mouse model
Assay: Bleomycin-induced pulmonary fibrosis mouse model
Type: in vivo
Details: BLM+NIN; 100 mg/kg orally once a day for 28 days; BLM group 5.4±0.5, negative control 0.4±0.55
Method: As a bleomycin-induced pulmonary fibrosis mouse model, 5-week-old, C57BL/6J male mice weighing 20 g before and after were used. The experiment was progressed by dividing the experimental animals into a control group in which distilled water was orally administered (Control), a group in which pulmonary fibrosis was caused by bleomycin (BLM), an experimental group in which bleomycin was administered and in 3 weeks, as a positive control group, nintedanib of 100 mg/kg was orally administered daily (BLM+NIN), and an experimental group in which bleomycin was administered and in 3 weeks, the synthetic example compound of the present invention of 3 mg/kg was orally administered daily (BLM+Synthetic example) as 7 mice per group.
The nintedanib and synthetic example compound was orally administered once a day for 28 days. […]
Comprehensively, based on the above histological and immunological results, by quantifying with improved Ashcroft scores (modified Ashcroft scale) widely used in the pulmonary fibrosis tissue analysis field, the severity of pulmonary fibrosis of each of the synthetic example compound administration groups (BLM+Synthetic example) compared to the negative control group (control), experimental group (BLM), positive control group was evaluated. […] For the experimental result, the mean and standard deviation were calculated using SPSS ver. […]

`COC(=O)c1ccc2c(c1)NC(=O)/C2=C(\Nc1ccc(N(C)C(=O)CN2CCN(C)CC2)cc1)c1ccccc1` [nintedanib] was tested, and the “improved Ashcroft score (modified Ashcroft scale)” value was 5.0±0.

Tested on: STAM mice
Assay: Non-alcoholic steatohepatitis and liver fibrosis STAM mouse model
Type: in vivo
Details: STAM+TEL; 10 mg/kg orally once a day for 28 days; STAM+vehicle 0.93±0.36, normal control 0.29±0.06
Description: In order to confirm the therapeutic effect for non-alcoholic steatohepatitis and liver fibrosis of the synthetic example compound of the present invention, non-alcoholic steatohepatitis and liver fibrosis-induced STAM mice (6-week-old, female, SMC laborlabories Inc, Japan) were used. All the mice were maintained under a standard condition. The experiment was progressed by dividing the experimental animals into a normal control group in which distilled water was orally administered (negative control), STAM group in which non-alcoholic steatohepatitis and fibrosis were induced (vehicle control), an experimental group in which telmisartane of 10 mg/kg was orally administered daily as a STAM positive control group (STAM+TEL), and an experimental group in which the synthetic example compound of 3 or 10 mg/kg was orally administered daily (STAM+Synthetic example) as 7 mice per group. The telmisartane and synthetic example compound were orally administered once a day for 28 days.
After completing the test, the animals were anesthetized and liver tissue was extracted for each individual, and blood was taken for examination. The weight of the liver tissue was measured and it was photographed. The tissue was fixed in 10% buffered neutral formalin solution. […]

`CCCc1nc2c(C)cc(-c3nc4ccccc4n3C)cc2n1Cc1ccc(-c2ccccc2C(=O)O)cc1` [telmisartane] was tested, and the “liver fibrosis area (Sirius red staining)” value was 0.44±0.15.

Same assay, conditions: STAM+TEL; 10 mg/kg orally once a day for 28 days; STAM+vehicle 4.8±0.7, normal control 0.0±0.0

`CCCc1nc2c(C)cc(-c3nc4ccccc4n3C)cc2n1Cc1ccc(-c2ccccc2C(=O)O)cc1` [telmisartane] was tested, and the “improved NAS score” value was 2.8±0.7.
